Measured values published in US20240425464A1, “Substituted Monohydrazides as Potent Antifungal Agents” (University of Kentucky Research Foundation, priority 2023, published 2024).
Values after ≈ are worked out from the molar mass of the structure shown. Like-named read-outs stand apart in the source and are kept apart here.

How the values were obtained:
Experiment in all cases: MIC determination by in vitro antifungal assay
Format in all cases: cell-based
[1] = test system: Aspergillus flavus ATCC MYA-3631 (O); details: strain O = A. flavus ATCC MYA-3631
Description: (§1) 10 mg/mL stock solutions of compounds 1a-9j were prepared in dimethyl sulfoxide (DMSO) and were stored at −20° C. in the dark. The antifungal agent amphotericin B (AmB) was purchased from VWR (Radnor PA, USA). AmB was dissolved in DMSO at a final concentration of 5 mg/mL and was stored at −20° C., protected from light. Candida albicans American Type Culture Collection (ATCC) 10231 (strain A), C. albicans ATCC 64124 (B), and C. albicans ATCC MYA-2876 (C) were obtained from Utah State University. C. albicans ATCC 90819 (D), C. albicans ATCC MYA-2310 (E), C. albicans ATCC MYA-1237 (F), C. albicans ATCC MYA-1003 (G), Candida glabrata ATCC 2001 (H), Candida krusei ATCC 6258 (I), Candida parapsilosis ATCC 22019 (J), Cryptococcus neoformans ATCC MYA-895 (M), Aspergillus terreus ATCC MYA-3633 (N), and Aspergillus flavus ATCC MYA-3631 (0) were obtained from the American Type Culture Collection (ATCC; Manassas, VA, USA). Aspergillus nidulans ATCC 38163 (P) was obtained from University of Kentucky. Clinically derived Aspergillus fumigatus NRRL 163 (Q), A. fumigatus NRRL 5109 (R), and A. fumigatus NRRL 6113 (S) were obtained from Northern Regional Research Laboratory (NRRL). Candida auris 384 (K), C. auris 390 (L), and fungal strains 381-400 (including 10 C. auris (AR Bank #381-390), 3 Candida duobushaemulonii (AR Bank #391, AR Bank #392, and AR Bank #394), 2 Candida haemulonii (AR Bank #393 and AR Bank #395), 1 Kodameae ohmeri (AR Bank #396), 1 C. krusei (AR Bank #397), 1 Candida lusitaniae (AR Bank #398), and 2 Saccharomyces cerevisiae strains (AR Bank #399 and AR Bank #400)) were part of a larger fungal library from the AR Bank maintained by the Centers for Disease Control and Prevention (CDC; Atlanta, GA, USA). Filamentous fungi and yeasts were cultivated at 35° C. in RPMI 1640 medium (with L-glutamine, without sodium bicarbonate, Sigma-Aldrich, St. Louis, MO) buffered to a pH of 7.0 with 0.165 M morpholinepropanesulfonic acid (MOPS) buffer (Sigma-Aldrich). For cytotoxicity assays, HepG2 and the mouse macrophage cell line J774A.1 were obtained from University of Kentucky. The human embryonic kidney cell line, HEK-293, was bought from the ATCC. Mammalian cells were grown in Dulbecco's Modified Eagle's Medium (DMEM) (from VWR) with 10% fetal bovine serum (FBS) (from VWR) and 1% Pen/Strep (from ATCC). Cell lines were cultured at 37° C. with 5% CO2 and passaged by trypsinization with 0.05% trypsin: 0.53 mM EDTA (from Sigma-Aldrich).
(§2) The MIC values of compounds 1a-9j against yeast cells (strains A-P and 381-400) were determined in 96-well plates as described in the CLSI documents M27-A3 and M38-A2 with minor modifications.^2 A single colony of freshly prepared yeast cells was used to inoculate 5 mL of yeast extract peptone dextrose (YPD) broth prior to incubation overnight with shaking at 200 rpm at 35° C. From the actively growing yeast culture, 100 µL were then transferred to 900 μL of RPMI 1640 medium and re-adjusted to achieve OD600 of 0.12 (˜1×10^6 CFU/mL). The cell suspension was further diluted to achieve 1:100 in RPMI 1640 medium. 100 μL of cells were added to the wells of a 96-well microtiter plates that contained 100 µL of the compound solution to obtain concentrations of 0.06-31.3 μg/mL of compounds 1a-9j or AmB prior to incubation for 48 h at 35° C.
(§3) Finally, the activity of these monohydrazides was explored against […] non-Candida strains: Cryptococcus neoformans ATCC MYA-895 (M), Aspergillus terreus ATCC MYA-3633 (N), Aspergillus flavus ATCC MYA-3631 (O), Aspergillus nidulans ATCC 38163 (P), Aspergillus fumigatus NRRL 163 (Q), A. fumigatus NRRL 5109 (R), and A. fumigatus NRRL 6113 (S) (Tables 1A and 1B). The double dilution method was used with concentrations ranging from 0.06 to 31.3 j·tg mL^−1 for monohydrazides 1a-9j, and the commercially available positive antifungal control amphotericin B (AmB).

[2] = test system: Aspergillus nidulans ATCC 38163 (P)
Description: as §1, §2, §3

[3] = test system: Aspergillus terreus ATCC MYA-3633 (N); details: strain N = A. terreus ATCC MYA-3633
Description: as §1, §2, §3

[4] = test system: Cryptococcus neoformans ATCC MYA-895 (M)
Description: as §1, §2, §3

[5] = test system: Candida parapsilosis ATCC 22019 (J)
Description: as §1
(§4) The MIC values of compounds 1a-9j against yeast cells (strains A-P and 381-400) were determined in 96-well plates as described in the CLSI documents M27-A3 and M38-A2 with minor modifications.^2 A single colony of freshly prepared yeast cells was used to inoculate 5 mL of yeast extract peptone dextrose (YPD) broth prior to incubation overnight with shaking at 200 rpm at 35° C. From the actively growing yeast culture, 100 µL were then transferred to 900 μL of RPMI 1640 medium and re-adjusted to achieve OD600 of 0.12 (˜1×10^6 CFU/mL). The cell suspension was further diluted to achieve 1:100 in RPMI 1640 medium. 100 μL of cells were added to the wells of a 96-well microtiter plates that contained 100 µL of the compound solution to obtain concentrations of 0.06-31.3 μg/mL of compounds 1a-9j or AmB prior to incubation for 48 h at 35° C. […]

[6] = test system: Candida krusei ATCC 6258 (I)
Description: as §1, §4

[7] = test system: Candida glabrata ATCC 2001 (H); details: ATCC 2001 in text
Description: as §1, §4

[8] = strain P = A. nidulans ATCC 38163
[9] = strain M = C. neoformans ATCC MYA-895
[10] = strain J = C. parapsilosis ATCC 22019
[11] = strain H = C. glabrata ATCC 2004 (footnote)
[12] = Aspergillus flavus, read-out: MIC
[13] = Aspergillus nidulans, ATCC38163, strain P = A. nidulans ATCC 38163, read-out: MIC
[14] = Aspergillus terreus, read-out: MIC
[15] = Cryptococcus neoformans, strain M = C. neoformans ATCC MYA-895, read-out: MIC
[16] = Lodderomyces parapsilosis, ATCC22019, strain J = C. parapsilosis ATCC 22019, read-out: MIC
[17] = Pichia kudriavzevii, ATCC6258, strain I = C. krusei ATCC 6258, read-out: MIC
[18] = Nakaseomyces glabratus, ATCC 2001 / ATCC 2004, strain H = C. glabrata ATCC 2004 (footnote), read-out: MIC

SMILES	MIC [1]	MIC [2, 8]	MIC [3]	MIC [4, 9]	MIC [5, 10]	MIC ([6]; strain I = C. krusei ATCC 6258)	MIC [7, 11]	MIC [1, 12]	MIC [2, 13]	MIC [3, 14]	MIC [4, 15]	MIC [5, 16]	MIC [6, 17]	MIC [7, 18]	MIC ([4]; against strain M)	MIC ([6]; against strain I)
C[C@@H]1[C@H](O)[C@@H](C)/C=C/C=C/C=C/C=C/C=C/C=C/C=C/[C@H](O[C@@H]2O[C@H](C)[C@@H](O)[C@H](N)[C@@H]2O)C[C@@H]2O[C@](O)(C[C@@H](O)C[C@@H](O)[C@H](O)CC[C@@H](O)C[C@@H](O)CC(=O)O[C@H]1C)C[C@H](O)[C@H]2C(=O)O [AmB, amphotericin B, reference compound]	31.3 μg/mL^−1	15.6 μg/mL^−1	3.9 μg/mL^−1	7.8 μg/mL^−1	0.98 μg/mL^−1	0.98 μg/mL^−1	0.98 μg/mL^−1	–	–	–	–	–	–	–	–	–
O=C(NNc1cccc(F)c1)c1ccc(F)cc1F [Compound 1a]	>31.3 μg/mL^−1	3.9 μg/mL^−1	3.9 μg/mL^−1	1.95 μg/mL^−1	3.9 μg/mL^−1	1.95 μg/mL^−1	7.8 μg/mL^−1	–	–	–	–	–	–	–	–	–
O=C(NNc1cccc(Cl)c1)c1ccc(F)cc1F [Compound 1b]	–	–	–	–	–	–	–	> 31.3 µg/mL	3.9 µg/mL (≈ 13.8 µM)	7.8 µg/mL (≈ 27.6 µM)	1.95 µg/mL (≈ 6.9 µM)	3.9 µg/mL (≈ 13.8 µM)	0.98 µg/mL (≈ 3.47 µM)	> 31.3 µg/mL	–	–
COc1cccc(NNC(=O)c2ccc(F)cc2F)c1 [Compound 1c]	–	–	–	–	–	–	–	> 31.3 µg/mL	3.9 µg/mL (≈ 14 µM)	3.9 µg/mL (≈ 14 µM)	0.49 µg/mL (≈ 1.76 µM)	7.8 µg/mL (≈ 28 µM)	0.98 µg/mL (≈ 3.52 µM)	31.3 µg/mL (≈ 112 µM)	–	–
O=C(NNc1ccc(F)cc1)c1ccc(F)cc1F [Compound 1d]	–	–	–	–	–	–	–	> 31.3 µg/mL	3.9 µg/mL (≈ 14.6 µM)	3.9 µg/mL (≈ 14.6 µM)	0.49 µg/mL (≈ 1.84 µM)	15.6 µg/mL (≈ 58.6 µM)	1.95 µg/mL (≈ 7.32 µM)	7.8 µg/mL (≈ 29.3 µM)	–	–
O=C(NNc1ccc(Cl)cc1)c1ccc(F)cc1F [Compound 1e]	>31.3 μg/mL^−1	31.3 μg/mL^−1	31.3 μg/mL^−1	1.95 μg/mL^−1	31.3 μg/mL^−1	15.6 μg/mL^−1	3.9 μg/mL^−1	–	–	–	–	–	–	–	–	–
COc1ccc(NNC(=O)c2ccc(F)cc2F)cc1 [Compound 1f]	–	–	–	–	–	–	–	> 31.3 µg/mL	1.95 µg/mL (≈ 7.01 µM)	31.3 µg/mL (≈ 112 µM)	0.98 µg/mL (≈ 3.52 µM)	7.8 µg/mL (≈ 28 µM)	0.98 µg/mL (≈ 3.52 µM)	3.9 µg/mL (≈ 14 µM)	–	–
O=C(NNc1ccc(F)cc1F)c1ccc(F)cc1F [Compound 1g]	–	–	–	–	–	–	–	> 31.3 µg/mL	1.95 µg/mL (≈ 6.86 µM)	31.3 µg/mL (≈ 110 µM)	0.49 µg/mL (≈ 1.72 µM)	7.8 µg/mL (≈ 27.4 µM)	7.8 µg/mL (≈ 27.4 µM)	1.95 µg/mL (≈ 6.86 µM)	–	–
O=C(NNc1cc(F)ccc1F)c1ccc(F)cc1F [Compound 1h]	–	–	–	–	–	–	–	15.6 µg/mL (≈ 54.9 µM)	3.9 µg/mL (≈ 13.7 µM)	> 31.3 µg/mL	0.98 µg/mL (≈ 3.45 µM)	31.3 µg/mL (≈ 110 µM)	3.9 µg/mL (≈ 13.7 µM)	> 31.3 µg/mL	0.98 j·tg mL^−1	–
O=C(NNc1cc(F)cc(F)c1)c1ccc(F)cc1F [Compound 1i]	–	–	–	–	–	–	–	> 31.3 µg/mL	7.8 µg/mL (≈ 27.4 µM)	> 31.3 µg/mL	0.49 µg/mL (≈ 1.72 µM)	15.6 µg/mL (≈ 54.9 µM)	1.95 µg/mL (≈ 6.86 µM)	> 31.3 µg/mL	0.49 j·tg mL^−1	1.95 j·tg mL^−1
O=C(NNc1cc(Cl)cc(Cl)c1)c1ccc(F)cc1F [Compound 1j]	–	–	–	–	–	–	–	> 31.3 µg/mL	15.6 µg/mL (≈ 49.2 µM)	> 31.3 µg/mL	7.8 µg/mL (≈ 24.6 µM)	> 31.3 µg/mL	1.95 µg/mL (≈ 6.15 µM)	> 31.3 µg/mL	–	1.95 j·tg mL^−1
O=C(NNc1cccc(F)c1)c1ccccn1 [Compound 2a]	7.8 μg/mL^−1	3.9 μg/mL^−1	1.95 μg/mL^−1	0.12 μg/mL^−1	1.95 μg/mL^−1	0.24 μg/mL^−1	1.95 μg/mL^−1	–	–	–	–	–	–	–	–	–
COc1cccc(NNC(=O)c2ccc(F)cn2)c1 [Compound 3c]	>31.3 μg/mL^−1	1.95 μg/mL^−1	3.9 μg/mL^−1	0.24 μg/mL^−1	3.9 μg/mL^−1	0.24 μg/mL^−1	–	–	–	–	–	–	–	–	–	–
